Test results: paper PMC5374710, “Discovery of the first dual GSK3β inhibitor/Nrf2 inducer. A new multitarget therapeutic strategy for Alzheimer’s disease” (Scientific Reports, 2017)
Like-named read-outs stand apart in the source and are kept apart here.

Experiments:
GSK3β = molecular target: T1, GSK3β (Homo sapiens, UniProt P49841); test: GSK3β inhibition, luminescence Kinase-Glo assay; format: biochemical; conditions: for Ki: calculated from IC50 by Cheng-Prusoff equation, Km ATP 2.345 µM, read-out: Ki (apparent equilibrium dissociation constant); for IC50: four concentrations 0.1, 1, 10, 30 μM, ATP 1 μM, 1 h
T1 construct: purchased Promega V1991
T1 sequence (P49841 whole entry): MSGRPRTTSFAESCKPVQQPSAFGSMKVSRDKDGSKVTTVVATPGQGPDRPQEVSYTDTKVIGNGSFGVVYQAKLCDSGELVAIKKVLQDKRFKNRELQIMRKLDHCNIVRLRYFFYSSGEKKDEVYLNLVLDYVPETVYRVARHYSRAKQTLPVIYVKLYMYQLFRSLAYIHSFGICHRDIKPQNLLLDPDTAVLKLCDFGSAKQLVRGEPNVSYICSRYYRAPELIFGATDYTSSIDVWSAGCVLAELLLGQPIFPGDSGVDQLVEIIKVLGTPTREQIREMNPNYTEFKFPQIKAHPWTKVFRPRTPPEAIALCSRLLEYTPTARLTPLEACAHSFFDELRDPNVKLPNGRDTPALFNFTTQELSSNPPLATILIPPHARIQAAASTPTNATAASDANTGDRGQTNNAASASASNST
Protocol: GSK3β inhibitory activity was evaluated using the method developed by Baki[66], with modifications. Compounds were dissolved in assay buffer, containing 40 mM Tris (pH 7.5), 20 mM MgCl2, 0.1 mg/ml BSA (bovine serum albumin) and 50 μM dithiothreitol (DTT) at the desired concentrations. Firstly, 10 μl of enzyme (10 ng) and 10 μl of each compound were mixed for 30 min. Then, 20 μl of a mixture of ATP (1 μM) and GSK3β peptidic substrate were added to each well. The mixture was incubated for 60 min at 30 °C. Thereafter, the remaining ATP concentration was measured with the Kinase-Glo system following instructions from the supplier. Luminescence was measured in an Orion II microplate luminometer (Berthold, Germany) as relative light units (RLU). […] IC50 values were calculated by non-linear regression analysis of individual concentration-response curves using GraphPad Prism 5.0 software (San Diego, CA, USA).
The ability of the compounds to inhibit GSK3β was evaluated using the method developed by Baki^9 with some modifications. The tested compounds were dissolved in assay buffer, containing 40 mM Tris (pH 7.5), 20 mM MgCl2, 0.1 mg/ml BSA (bovine serum albumin) and 50 µM dithiothreitol (DTT), to achieve final reaction concentrations of 0.1, 1, 10 and 30 µM. […] The GSK3β inhibition assay was performed in white 96-well plates, in duplicates. Firstly, 10 µl of enzyme (10 ng) were added to each well, followed by 10 µl of the compounds at the desired concentration. After 30 minutes, 20 µl of a mixture of ATP and GSK3β peptidic substrate were added to each well, achieving a final concentration of 1 µM of ATP and 25 of µM peptidic substrate. The mixture was incubated at 30 °C for 60 minutes. Once the reaction was finished, the remaining ATP concentration was measured by adding 40 µl/well of Kinase-Glo reagent. The luminescence was measured in an Orion II microplate luminometer (Berthold, Germany) as relative light units (RLU). The luminescence recorded is proportional to the amount of ATP present in each well.
Apparent Ki for each compound were calculated from GSK3β Km value for ATP, applying the Cheng-Prusoff equation^10,11 in its simplified form: Ki = IC50/(1+([S]/Km)), in which S refers to the ATP concentration and Km is the Michaelis constant of the substrate for GSK3β.

Nrf2 = test: Nrf2-dependent luciferase reporter assay in AREc32 cell line; format: cell-based; conditions: for EC50: AREc32 cells, read-out: CD (concentration required to double the luciferase reporter activity)
Protocol: Thereafter, we tested the ability of the compounds to induce the Nrf2 transcription factor. We used an Nrf2-dependent luciferase reporter assay in the AREc32 cell line[45]. Cells were cultured for 24 h and then treated with increasing concentrations of compounds 5a–t (0.3, 3, 10 and 30 μM), including the known inducer sulforaphane, containing an isothiocyanate motive as positive control.
AREc32 cells were plated in 96-well white plates (2 × 10^4 cells/well). After 24 h, cells were incubated with increasing concentrations of each compound in duplicate for 24 h. AREc32 cells express constitutively the plasmid pGL-8xARE that implements 8 copies of the EpRE sequences followed by luciferase reporter gen. Therefore, Nrf2 induction is related to the activation of EpRE sequences, expressing luciferase at the same extent as EpRE sequences are activated. The Luciferase Assay System (Promega E1500), was used according to provider protocol and luminescence was quantified in an Orion II microplate luminometer (Berthold, Germany). Fold induction of luciferase activity was normalized to basal conditions. Data are expressed as CD values, expressing the concentration required to double the luciferase activity. CD values are calculated from dose-response curves generated from fold induction of control conditions vs. inducer concentration and fitted by non-linear regression and data interpolated to 2-fold induction concentration.
Breast cancer cells stably transfected to express luciferase after EpRE sequences MCF-7/AREc32 named AREc32, were kindly provided by Dr. C. Roland Wolf (University of Dundee, UK).^14 AREc32 cells were maintained in DMEM with high glucose-glutamax, supplemented with 10 % FBS, 1 % penicillin-streptomycin (10,000 units), and geneticin (0.8 mg/ml G418) at 37 °C and in a 5 % CO2- air atmosphere.^14
AREc32 cells are constitutively transfected with the pGL-8xARE luciferase reporter gene, inserted after EpRE sequences. Thus, Nrf2 translocation to the nucleus induces the activation of the EpRE sequences, expressing their target phase II antioxidant genes, and expressing luciferase at the same extent.^15 AREc32 cells were plated in 96-well white plates (2X10^4 cells/well). After 24 h, cells were incubated with increasing concentrations of each compound in duplicate for 24 h (dissolved in DMSO to give a final 0.1 % vol/vol concentration of vehicle). Each plate included non-treated cells as basal luciferase expression and tBHQ (10 µM) as positive control. TBHQ is a potent Nrf2 inducer used as control in the development of the AREc32 cells.^14 Transfected clones are selected using G418. AREc32 cells express constitutively the plasmid pGL-8xARE that implements 8 copies of the EpRE sequences followed by a luciferase reporter gene. Therefore, the induction of Nrf2 is proportional to the activation of EpRE sequences, expressing luciferase at the same extent as EpRE sequences are activated. Luciferase production is then assessed by a bioluminescence assay. The Luciferase Assay System (Promega E1500), was used according to the Promega protocol and luminescence was quantified in an Orion II microplate luminometer (Berthold, Germany). Relative Light Units (RLU) were recorded for the contents of each well. Fold induction of luciferase activity was calculated by dividing the RLU obtained for the tests wells for each treatment by the average RLU obtained for the basal conditions. Data are expressed as CD values, expressing the concentration required to double the basal luciferase activity, used to quantify the Nrf2 induction potency. CD values are calculated from dose-response curves generated from fold induction of control conditions vs. inducer concentration and fitted by non-linear regression and data interpolated to value the 2-fold induction concentration, using GraphPad Prism software (San Diego, CA, USA).

SH-SY5Y cells [1] = test: Neuroprotection against rotenone/oligomycin A (R/O), MTT; format: cell-based; conditions: 1 μM, 24 h pre-incubation, 24 h co-incubation with rotenone/oligomycin A 30/10 μM
Protocol: Figure 5 Compounds 5a–t exert neuroprotection in in vitro models of AD. […] Then, treatments were removed and cells were co-incubated with each treatment and okadaic acid for 18 h or R/O for 24 h. Cell viability was measured by the MTT reduction assay. Values are expressed as mean ± SEM of five independent experiments in triplicate. ***p < 0.001; **p < 0.01 respect to toxic stimuli treated cells, considered as 0% of protection.
As stated in the Introduction, oxidative stress is considered one of the main causes of neuronal death in AD. Therefore, we were interested in evaluating the potential antioxidant activity of compounds 5a–t in a model of oxidative stress and energy depletion, which in turn increase cell death. For this purpose, we selected the combination of rotenone (30 μM) and oligomycin A (10 μM) (R/O) to induce neurotoxicity as a model system[23][40] to evaluate the potential neuroprotective activity of the compounds. Melatonin, a well-known antioxidant natural compound, was included as a positive control.
(§1) A pre- and co-incubation protocol was followed. Cells were pre-incubated with the corresponding compound at 1 μM in neuroblastoma cells culture medium. After 24 h, medium was removed and replaced with 1% FBS neuroblastoma culture media containing the corresponding compound (1 μM) and the toxic stimuli, the mixture of rotenone and oligomycin A (30 μM/10 μM respectively) or okadaic acid at 20 nM. Cells were co-incubated for further 24 h with the rotenone and oligomycin A solution or 18 h with the okadaic acid solution. Control cells were incubated with the same amount of DMSO without any drug. After the co-incubation period, cell viability was assessed by the MTT-reduction method.
as §1, with “A pre” for “A pre-”, “1 µM” for “1 μM”, “compound at 1 µM” for “compound (1 μM)”, “stimuli, namely a” for “stimuli, the”, “(30 µM / 10 µM” for “(30 μM/10 μM”, “drug. […]” for “drug.”
The percentage of protection was calculated as follows: the percentage of cell survival obtained with the toxic stimuli-treated cells subtracted to 100 was normalized to 100 % of cell death. The percentage of protection was obtained by subtracting the percentage of cell death in presence of the tested compound to 100%.

Keap1 Kelch domain = molecular target: T2, Keap1 Kelch domain (Homo sapiens, UniProt Q14145); test: Differential scanning fluorimetry assay; format: binding; conditions: ligand concentration 10 µM
T2 construct: A solution of the Keap1 Kelch domain protein (5 µM)
T2 sequence (Q14145 321-609 limits assumed): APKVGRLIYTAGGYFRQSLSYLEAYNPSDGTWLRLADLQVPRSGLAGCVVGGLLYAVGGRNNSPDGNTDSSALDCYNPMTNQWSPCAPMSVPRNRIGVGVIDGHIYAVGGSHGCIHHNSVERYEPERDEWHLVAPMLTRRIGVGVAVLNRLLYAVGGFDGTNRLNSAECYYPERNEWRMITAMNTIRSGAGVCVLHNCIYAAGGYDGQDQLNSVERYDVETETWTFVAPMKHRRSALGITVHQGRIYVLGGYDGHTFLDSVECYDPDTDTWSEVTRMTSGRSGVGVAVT
Protocol: A solution of the Keap1 Kelch domain protein (5 µM) and detection dye SYPRO® orange (5X) in DPBS at pH 7.4 was added onto a qPCR plate containing the compound inhibitor (10 µM, 10% final DMSO concentration, 40 µL final volume). The plate was sealed using an optical foil seal and covered with aluminum foil to protect the dye from light. The plate was then transferred to a plate centrifuge and spun down briefly (200 G, 1 min, room temperature) to remove any bubbles and collect the solution at the bottom of the wells. Following a 30 min incubation at room temperature, the plate was placed into a 7500 Real time PCR machine and the fluorescence intensity at an excitation of 465 nm and emission of 580 nm was recorded during a temperature scan from 25 °C to 95 °C with a temperature ramping rate of 1 °C/min. All measurements were run in triplicate. Life Technologies software was used to set up the run on 7500 Software v.2.0.0 and the initial data processing was carried out on Protein thermal shift solution software. The raw data were exported to MS Excel and analysis was performed using a custom script provided by the Structural Genomics Consortium Oxford.^18 The temperature range over which the protein unfolding occurred was selected and the maximum and minimum (at temperatures below the maximum intensity) fluorescence intensities within this range were determined. The processed data were fitted to the Boltzmann equation by non-linear regression using the Origin Pro software.

HepG2 cells = test: Hepatotoxicity in HepG2 cell line (MTT); conditions: 24 h
Protocol: Thus, it is relevant to study the potential neurotoxicity and hepatotoxicity of the novel dual GSK3β inhibitors-Nrf2 inducers 5a–t.
(§2) Viability was measured as MTT reduction in presence of increasing concentrations of derivatives. Values are expressed as LD50 calculated from dose-response curves of four different concentrations.
HepG2 cells were cultured according to supplier indications in EMEM supplemented with 10 % heat-inactivated FBS, 100 µg/mL streptomycin and 100 units/mL penicillin. Cells were maintained at 37 °C in humidified atmosphere of 95 % air and 5 % CO2. For experimental procedures, cells were cultured in 96-well plates at density of 1x10^5 cells/well. Treatments were performed in 1% FBS medium unless other concentration was specified. Cells were used from 4 up to 13 passages.
(§3) Cells were cultured in 48-well (SH-SY5Y, 1x10^5 cells per well) or 96-well plates (HepG2, 1x10^5 cells per well) for 24 h. […] Control cells were incubated with the same concentration of DMSO (0.1 % final concentration) without any drug.

SH-SY5Y cells [2] = test: Cytotoxicity in SH-SY5Y neuroblastoma cell line (MTT); conditions: 24 h
Protocol: as §2, §3

SH-SY5Y cells [3] = test: Neuroprotection against okadaic acid (tau hyperphosphorylation), MTT; format: cell-based; conditions: 1 μM, 24 h pre-incubation, 18 h co-incubation with OA 20 nM

Ki (GSK3β) | IC50 (GSK3β) | EC50 (Nrf2; Arec32, 24 h) | ΔTm at 10 µM (Keap1 Kelch domain) | EC50 (Nrf2; 24 h) | Compound | Percentage of protection against R/O toxicity (SH-SY5Y cells [1]) | HepG2 LD50 (HepG2 cells) | SH-SY5Y LD50 (SH-SY5Y cells [2]) | Luciferase activity increase alone versus in presence of Li (10 mM) (Nrf2; 3 μM to 30 μM, 24 h) | Percentage of protection against okadaic acid toxicity (SH-SY5Y cells [3])
5.04 µM | 7.2 ± 0.7 µM | 11.3 ± 1.3 µM | -0.43 ± 0.49 °C |  | COc1cccc(C2C(C#N)=C(N)Oc3n[nH]c(C)c32)c1 (centres unmarked) [Compound 5c, 6-Amino-4-(3-methoxyphenyl)-3-methyl-2,4-dihydropyrano[2,3-c]pyrazole-5-carbonitrile] | 55.3% | > 100 µM | > 100 µM |  | 
 | > 30 µM | > 30 µM |  |  | Cc1n[nH]c2c1C(c1ccccc1Br)C(C#N)=C(N)O2 (centres unmarked) [Compound 5l, 6-Amino-4-(2-bromophenyl)-3-methyl-2,4-dihydropyrano[2,3-c]pyrazole-5-carbonitrile] | 24.1% | > 100 µM | > 100 µM |  | 
2.64 µM | 3.77 ± 2 µM | < 10 µM | -0.14 ± 0.35 °C | 9.37 ± 1.4 µM | Cc1[nH]nc2c1C(c1ccc(Br)cc1)C(C#N)=C(N)O2 (centres unmarked) [Compound 5m, 6-Amino-4-(4-bromophenyl)-3-methyl-2,4-dihydropyrano[2,3-c]pyrazole-5-carbonitrile] |  | > 100 µM | > 100 µM | to the same extent and without statistically significant differences | over 50%
 | > 30 µM | 8.91 ± 2.2 µM |  |  | Cc1[nH]nc2c1C(c1cccnc1)C(C#N)=C(N)O2 (centres unmarked) [Compound 5s, 6-Amino-3-methyl-4-(pyridin-3-yl)-2,4-dihydropyrano[2,3-c]pyrazole-5-carbonitrile] | 57.9% | > 100 µM | > 100 µM |  | 
